# Laboratory results: US4477463A, “Antiinflammatory and/or analgesic 1-alkyl-4,5-diaryl-2-fluoroalkyl-1H-pyrroles” (E. I. Du Pont de Nemours and Company, priority 1982, dated 1984)
# Where two headings read alike, the source gives them in different places.
# Columns and labels:
# [1] = system: phenylquinone-induced writhing in mice; assay: Phenylquinone Writhing Test; type: in vivo, female white mice; settings: Mus musculus, read-out: Phenylquinone Writhing (PQW) ED50
# Method: Phenylquinone Writhing Test
# A test compound suspended in 1% methylcellulose was given orally to fasted (17-21 hours) female white mice, 5-20 animals per double blind test. Aqueous (0.01% phenyl-p-benzoquinone) phenylquinone, 0.20 ml per mouse, was injected intraperitoneally 6 minutes before observations were begun.
# [2] = system: adjuvant-induced arthritis in rats; assay: Established Adjuvant-Induced Arthritis in Rats; type: in vivo, Charles River Lewis male rats; settings: for ED50: Rattus norvegicus, read-out: Adjuvant Arthritic ED50; for percent reduction in paw volume: at 9 mg/kg
# [3] = effective analgesic dose for 50% of the mice, oral, 0.01% phenylquinone 0.20 ml i.p.
# [4] = ED50% decrease from control paw volume (uninjected, left hind paw), oral, daily for 7 days, read one day after last dose
# [5] = oral, daily for 7 days, read one day after last dose
SMILES,ED50 ([1]; po) [mg/kg],ED50 ([2]; po) [mg/kg],"ED50 [1, 3] [mg/kg]","ED50 [2, 4] [mg/kg]","percent reduction in paw volume [2, 5] [%]"
"CC(=O)Oc1ccccc1C(=O)O [Aspirin, reference compound]",135,305,–,–,–
"COc1ccc(-c2cc(C(F)(F)F)n(C)c2-c2ccc(OC)cc2)cc1 [Example 1, 4,5-Bis(4-methoxyphenyl)-1-methyl-2-trifluoromethyl-1H-pyrrole]",–,–,16,1.25,–
"COc1ccc(-c2cc(C(F)(F)C(F)(F)F)n(C)c2-c2ccc(OC)cc2)cc1 [Example 2, 4,5-bis(4-methoxyphenyl)-1-methyl-2-pentafluoroethyl-1H-pyrrole]",–,–,1.8,–,32
CCn1c(C(F)(F)F)cc(-c2ccc(OC)cc2)c1-c1ccc(OC)cc1 [Example 3],–,–,47,18,–
Cn1c(C(F)(F)F)cc(-c2ccc(Cl)cc2)c1-c1ccc(Cl)cc1 [Example 4],–,–,–,–,29
Cc1ccc(-c2cc(C(F)(F)F)n(C)c2-c2ccc(C)cc2)cc1 [Example 5],–,–,18,–,28
"CSc1ccc(-c2c(-c3ccc(F)cc3)cc(C(F)(F)F)n2C)cc1 [Example 6, 4-(4-fluorophenyl)-1-methyl-5-(4-methylthiophenyl)-2-trifluoromethyl-1H-pyrrole]",–,–,16,1.8,–
"Cn1c(C(F)(F)F)cc(-c2ccc(F)cc2)c1-c1ccc(S(C)(=O)=O)cc1 [Example 7, 4-(4-fluorophenyl)-1-methyl-5-(4-methylsulfonylphenyl)-2-trifluoromethyl-1H-pyrrole]",–,–,–,3.5,–
"CSc1ccc(-c2cc(C(F)(F)F)n(C)c2-c2ccc(SC)cc2)cc1 [Example 8, 1-methyl-4,5-bis(4-methylthiophenyl)-2-trifluoromethyl-1H-pyrrole]",–,–,> 108,1.8,–
"CC(C)Cc1ccc(C(C)C(=O)O)cc1 (stereo not shown) [Ibuprofen, reference compound]",–,–,10,100,–
"COc1ccc2c(c1)c(CC(=O)O)c(C)n2C(=O)c1ccc(Cl)cc1 [Indomethacin, reference compound]",0.35,0.3,–,–,–
"CCCCC1C(=O)N(c2ccccc2)N(c2ccccc2)C1=O [Phenylbutazone, reference compound]",–,–,80,10,–
